Reference: ChEMBL document CHEMBL5303573, “Mapping human microbiome drug metabolism by gut bacteria and their genes” (Nature, 2019)

Tests used:
[1] = molecular target: T1, Pyridine nucleotide-disulfide oxidoreductase (Collinsella aerofaciens, UniProt A4EBM5); assay: (§1) The drug is tested on Collinsella aerofaciens strain: ATCC25986 for biotransformation. The drug concentrations were measured before and after a 12-h incubation by liquid-chromatography-coupled mass spectrometry (LC–MS); assay type: ADME; set-up: dose 2 uM; settings: 2 µM
T1 sequence (A4EBM5 whole entry): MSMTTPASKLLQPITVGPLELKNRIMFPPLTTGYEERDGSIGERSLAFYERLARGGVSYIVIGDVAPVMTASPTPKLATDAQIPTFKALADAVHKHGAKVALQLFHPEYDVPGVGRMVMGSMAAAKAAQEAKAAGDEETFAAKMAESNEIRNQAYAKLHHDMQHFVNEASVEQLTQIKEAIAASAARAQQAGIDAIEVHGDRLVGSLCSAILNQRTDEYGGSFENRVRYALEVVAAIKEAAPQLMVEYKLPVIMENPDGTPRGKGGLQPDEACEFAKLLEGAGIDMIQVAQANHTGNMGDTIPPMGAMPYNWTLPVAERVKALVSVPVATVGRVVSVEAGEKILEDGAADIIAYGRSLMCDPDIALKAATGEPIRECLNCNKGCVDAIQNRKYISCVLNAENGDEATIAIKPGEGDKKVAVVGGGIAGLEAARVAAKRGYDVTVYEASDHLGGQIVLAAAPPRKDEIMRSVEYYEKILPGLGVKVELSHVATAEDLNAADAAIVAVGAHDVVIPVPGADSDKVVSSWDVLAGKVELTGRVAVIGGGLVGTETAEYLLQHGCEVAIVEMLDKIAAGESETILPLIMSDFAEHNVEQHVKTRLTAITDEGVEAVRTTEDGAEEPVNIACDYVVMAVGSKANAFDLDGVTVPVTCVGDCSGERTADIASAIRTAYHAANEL

Flavodoxin = molecular target: T2, Flavodoxin (Collinsella aerofaciens, UniProt A4ED08); assay: as §1; assay type: ADME; set-up: dose 2 uM; settings: 2 µM
T2 sequence (A4ED08 whole entry): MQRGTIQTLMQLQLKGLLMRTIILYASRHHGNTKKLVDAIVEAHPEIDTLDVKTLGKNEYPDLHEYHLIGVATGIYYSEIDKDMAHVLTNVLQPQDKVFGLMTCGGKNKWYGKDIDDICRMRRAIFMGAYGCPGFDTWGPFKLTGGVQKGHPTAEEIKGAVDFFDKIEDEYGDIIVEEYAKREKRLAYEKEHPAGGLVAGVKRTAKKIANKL

Diguanylate cyclase = molecular target: T3, Diguanylate cyclase (Collinsella aerofaciens, UniProt A4EB91); assay: as §1; assay type: ADME; set-up: dose 2 uM; settings: 2 µM
T3 sequence (A4EB91 whole entry): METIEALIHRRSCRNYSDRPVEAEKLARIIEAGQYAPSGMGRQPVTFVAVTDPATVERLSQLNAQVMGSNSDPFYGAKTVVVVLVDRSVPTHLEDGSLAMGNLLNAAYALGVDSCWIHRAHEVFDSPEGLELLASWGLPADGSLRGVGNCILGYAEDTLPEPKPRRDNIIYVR

GDSL-like protein = molecular target: T4, GDSL-like protein (Collinsella aerofaciens, UniProt A4E7D0); assay: as §1; assay type: ADME; set-up: dose 2 uM; settings: 2 µM
T4 sequence (A4E7D0 whole entry): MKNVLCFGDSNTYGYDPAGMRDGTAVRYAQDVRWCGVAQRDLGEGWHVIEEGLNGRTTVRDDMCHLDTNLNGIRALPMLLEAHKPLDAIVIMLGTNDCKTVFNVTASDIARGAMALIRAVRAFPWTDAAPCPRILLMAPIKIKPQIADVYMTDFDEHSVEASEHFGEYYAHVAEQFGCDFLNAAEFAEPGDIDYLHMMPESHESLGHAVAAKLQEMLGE

[2] = The drug is tested on Clostridium sp. strain: fecal isolate for biotransformation. The drug concentrations were measured before and after a 12-h incubation by liquid-chromatography-coupled mass spectrometry (LC–MS); settings: 2 µM
Xylanase = molecular target: T5, Xylanase (Bacteroides thetaiotaomicron, UniProt Q8A8H5); assay: (§2) The drug is tested on Bacteroides thetaiotaomicron strain: VPI-5482 for biotransformation. The drug concentrations were measured before and after a 12-h incubation by liquid-chromatography-coupled mass spectrometry (LC–MS); assay type: ADME; set-up: dose 2 uM; settings: 2 µM
T5 sequence (Q8A8H5 whole entry): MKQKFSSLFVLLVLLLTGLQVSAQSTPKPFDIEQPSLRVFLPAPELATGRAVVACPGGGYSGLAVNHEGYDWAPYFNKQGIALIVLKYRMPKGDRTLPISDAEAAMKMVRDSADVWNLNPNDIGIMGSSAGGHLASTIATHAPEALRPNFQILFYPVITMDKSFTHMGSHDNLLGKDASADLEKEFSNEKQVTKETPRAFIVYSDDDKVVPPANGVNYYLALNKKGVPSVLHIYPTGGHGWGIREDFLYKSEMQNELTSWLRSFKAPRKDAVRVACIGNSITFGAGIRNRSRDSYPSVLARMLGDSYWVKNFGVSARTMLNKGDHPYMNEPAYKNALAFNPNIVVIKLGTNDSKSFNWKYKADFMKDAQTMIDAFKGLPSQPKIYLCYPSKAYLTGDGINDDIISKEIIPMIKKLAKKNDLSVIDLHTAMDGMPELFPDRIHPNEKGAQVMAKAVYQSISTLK

[3] = molecular target: T6, Sialic acid-specific acetylesterase (Bacteroides thetaiotaomicron, UniProt Q8A331); assay: as §2; assay type: ADME; set-up: dose 2 uM; settings: 2 µM
T6 sequence (Q8A331 whole entry): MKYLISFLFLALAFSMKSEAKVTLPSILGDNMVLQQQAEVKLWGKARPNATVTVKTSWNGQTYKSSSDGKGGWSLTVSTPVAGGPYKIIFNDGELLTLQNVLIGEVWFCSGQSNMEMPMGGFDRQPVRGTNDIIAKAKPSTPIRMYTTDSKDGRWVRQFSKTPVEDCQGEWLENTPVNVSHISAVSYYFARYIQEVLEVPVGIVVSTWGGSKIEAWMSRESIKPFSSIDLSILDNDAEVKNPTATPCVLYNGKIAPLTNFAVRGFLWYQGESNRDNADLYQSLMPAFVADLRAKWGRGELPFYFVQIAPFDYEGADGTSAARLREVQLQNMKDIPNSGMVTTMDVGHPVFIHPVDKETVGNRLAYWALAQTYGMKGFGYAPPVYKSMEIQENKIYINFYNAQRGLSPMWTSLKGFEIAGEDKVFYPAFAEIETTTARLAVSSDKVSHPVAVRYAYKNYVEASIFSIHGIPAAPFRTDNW

[4] = The drug is tested on Subdoligranulum variabile strain: DSM15176 for biotransformation. The drug concentrations were measured before and after a 12-h incubation by liquid-chromatography-coupled mass spectrometry (LC–MS); settings: 2 µM
[5] = The drug is tested on Clostridium ramosum strain: DSM1402 for biotransformation. The drug concentrations were measured before and after a 12-h incubation by liquid-chromatography-coupled mass spectrometry (LC–MS); settings: thomasclavelia ramosa, 2 µM
[6] = akkermansia muciniphila, 12 h, 2 µM
Description: The drug is tested on Akkermansia muciniphila strain: ATCC BAA-835 for biotransformation. The drug concentrations were measured before and after a 12-h incubation by liquid-chromatography-coupled mass spectrometry (LC–MS)

[7] = The drug is tested on Coprococcus comes strain: ATCC27758 for biotransformation. The drug concentrations were measured before and after a 12-h incubation by liquid-chromatography-coupled mass spectrometry (LC–MS); assay type: ADME; set-up: dose 2 uM, timepoint 0 vs 12 hours; settings: 2 µM
[8] = bacteroides thetaiotaomicron, 12 h, 2 µM
Description: The drug is tested on Bacteroides thetaiotaomicron strain: 7330 for biotransformation. The drug concentrations were measured before and after a 12-h incubation by liquid-chromatography-coupled mass spectrometry (LC–MS)

[9] = The drug is tested on Odoribacter splanchnicus strain: fecal isolate for biotransformation. The drug concentrations were measured before and after a 12-h incubation by liquid-chromatography-coupled mass spectrometry (LC–MS); settings: 2 µM

Compound | Bacterial Biotransformation [1] | Bacterial Biotransformation (Flavodoxin) | Bacterial Biotransformation (Diguanylate cyclase) | Bacterial Biotransformation (GDSL-like protein) | Bacterial Biotransformation [2] | Bacterial Biotransformation (Xylanase) | Bacterial Biotransformation [3] | Bacterial Biotransformation [4] | Bacterial Biotransformation [5] | Bacterial Biotransformation [6] | Bacterial Biotransformation [7] | Bacterial Biotransformation [8] | Bacterial Biotransformation [9]
CC(=O)Nc1ccc(OC(C)=O)cc1 [DIACETAMATE] | Compound NOT metabolized | Compound NOT metabolized | Compound NOT metabolized | Compound metabolized | Compound NOT metabolized | Compound metabolized | Compound metabolized | Compound metabolized | Compound metabolized | Compound metabolized | Compound metabolized | Compound metabolized | Compound metabolized
CCN(CC)C(=O)/C(C#N)=C/c1cc(O)c(O)c([N+](=O)[O-])c1 [ENTACAPONE] | Compound NOT metabolized | Compound NOT metabolized | Compound metabolized | Compound NOT metabolized | Compound metabolized | Compound NOT metabolized | Compound NOT metabolized | Compound metabolized | Compound metabolized | Compound metabolized | Compound metabolized | Compound metabolized | Compound metabolized
C[C@@H]1CC[C@H]2[C@@H](C)C(=O)O[C@@H]3O[C@@]4(C)CC[C@@H]1[C@]32OO4 [ARTEMISININ] | Compound NOT metabolized | Compound NOT metabolized | Compound NOT metabolized | Compound NOT metabolized | Compound metabolized | Compound NOT metabolized | Compound NOT metabolized | Compound metabolized | Compound metabolized | Compound metabolized | Compound metabolized | Compound metabolized | Compound metabolized
